Row | Structure (SMILES) | melting point [°C]
1 | Cn1ncc2c(=O)n3c(nc21)SC(C(=O)O)C3 (centres undefined) | 274 to 276
2 | C[C@]12CC(=O)[C@H]3[C@@H](CCC4=CC(=O)CC[C@@H]43)[C@@H]1CCC2=O | 204 to 209
3 | C=C(c1ccc2nc(N)n(S(=O)(=O)C(C)C)c2c1)c1cc(F)ccc1F | 161 to 164
4 | COC(=O)NN=Cc1ccc([N+](=O)[O-])cc1 | 212 to 213
5 | COc1cc(C)nc(NC(=O)NS(=O)(=O)C2=CCCCC2)n1 | 163 to 166
6 | CCCNC(=O)c1cnc2cc(C)ccn2c1=O | 194 to 196
7 | CCNc1ncn(Cc2ccc(OC)c(OC3CCCC3)c2)c2nc(C(C)C)nc1-2 | 205 to 207
8 | COC(=O)C1(C)CCc2cc(C(=O)c3ccccc3)c(OC)cc21 (centres undefined) | 135 to 137
9 | N#CC1=C(c2c[nH]c3ccccc23)Nc2n[nH]cc2C1c1cccc2nonc12 (centres undefined) | 238
10 | CS(=O)(=O)Nc1cccc(Nc2nc(N3CCCC3)c3nc[nH]c3n2)c1 | 164 to 168
11 | CCOC(=O)c1cc2cc(Cl)c(F)cc2[nH]1 | 160 to 164
12 | CC(C)c1cccc(COCCCn2ccnc2)c1NC(=O)CC1c2ccccc2Oc2ccccc21 | 131 to 132
13 | CC(C)(C)OC(=O)NC(C(=O)Nc1n[nH]c(=S)s1)c1ccccc1 (centres undefined) | 194 to 195
14 | CC(C)(C(=O)Nc1cccc(Cl)c1)N1OCC(CI)=C(c2ccccc2)C1=O | 135 to 137
15 | Nc1nc(-c2ccc(CN3CCCCCC3)s2)n[nH]1 | 160 to 161
16 | FC(F)(F)Oc1ccc(-c2ccc(CCl)cn2)cc1 | 34 to 36
17 | COC1(c2cc(F)cc(Sc3cnc4c(c3)OCC(=O)N4C)c2)CCOCC1 | 127 to 128
18 | COc1cc(NCCO)c([N+](=O)[O-])c(NCCO)c1 | 150
19 | CC(C)c1nc2c(c3c1[nH]c1ccccc13)C(=O)C(C)(C)CC2 | 182 to 184
20 | CSCC[C@@H](NC(=O)OC(C)(C)C)C(=O)Oc1c(Cl)c(Cl)c(Cl)c(Cl)c1Cl | 133 to 134

Row | Structure (SMILES) | melting point [°C]
21 | Cc1cc(C)cc(S(=O)(=O)c2c(C(=O)O)[nH]c3ccc(Cl)cc23)c1 | 277 to 278
22 | CC1OCCn2c1nc(C(=O)O)c(OCc1ccccc1)c2=O (centres undefined) | 167 to 168
23 | COC(=O)CCCC#Cc1cc(Cl)ccc1NS(=O)(=O)c1cccc(OC)c1 | 71 to 76
24 | c1cncc(CNC2=Nc3ccccc3Nc3ccccc32)c1 | 150 to 152
25 | CC(=O)c1ccc(OCCCN2CCC(c3nsc4cc(F)ccc34)CC2)c(O)c1 | 135 to 137
26 | O=C(NCc1cccc(-c2nc(=O)c3ccccc3s2)n1)c1cccs1 | 208 to 209
27 | O=C(O)C(=O)c1ccco1 | 81 to 91
28 | CC(C)Nc1cccnc1N1CCN(C(=O)c2ccc(C(=O)NCCN3CCCCC3)cc2)CC1 | 106 to 107
29 | OC(c1cccc(OCc2ccc3ccccc3n2)c1)(c1nccs1)C(F)(F)F (centres undefined) | 177
30 | CC(C)C(=O)N[C@H]1CCc2c(c3cc(Br)ccc3n2Cc2ccccc2)C1 | 177 to 179
31 | CC1(CN2CCC(OCc3ccc(Cl)cc3)CC2)Cn2cc([N+](=O)[O-])nc2O1 (centres undefined) | 129 to 130
32 | O=[N+]([O-])c1cnc2ccc(Br)cn12 | 160 to 161
33 | CNC1C(O)CC2C3CCc4cc(O)cc(C)c4C3CCC21C (centres undefined) | 215 to 231
34 | CN(C(=O)c1ccc(C(C)(C)C)cc1)C1N(C)C(c2ccc(F)cc2)=NC1(C(F)(F)F)C(F)(F)F (centres undefined) | 129 to 130
35 | NN1CCC2(CC1)OC(c1ccccc1)c1ccccc12 (centres undefined) | 143 to 145
36 | O=C(Nc1ccnn1-c1c(Cl)cc(C(F)(F)F)c(Cl)c1Cl)C(F)(F)F | 140 to 145
37 | C=C(C)COc1ccc(C(=O)C=Cc2ccc(Br)cc2)c(O)c1 | 121 to 122
38 | COC(=O)C(C)(C)c1ccc(OCCNC(=O)C2Cc3ccccc3N2S(=O)(=O)c2ccc(-c3cc(C(F)(F)F)ccc3Cl)cc2)cc1 (centres undefined) | 66 to 72
39 | Cc1c(-c2ccc(-c3ccccc3F)cc2)nc2ccc(F)cc2c1C(=O)O | 315 to 317

Source: a melting point compilation (Tetko et al.; mined from patent text by program, amines drawn as free bases though some values may be those of a salt)
